Test results from patent publication US20230338378A1, “Methods of Administering Myosin Inhibitors” (MYOKARDIA, INC., priority 2022, published 2023).
Read-outs that look alike come from different tables or passages of the source.

Key:
[1] = tested on: adults with symptomatic NYHA class II and III obstructive HCM; assay: EXPLORER-HCM Phase 3, double-blind, randomized, placebo-controlled trial; type: in vivo, human
Procedure: The safety of MAVACAMTEN was evaluated in EXPLORER-HCM, a Phase 3, double-blind, randomized, placebo-controlled trial. Of the 251 adults with obstructive HCM, 123 patients were treated with MAVACAMTEN 2.5-15 mg daily and 128 were treated with placebo.
The efficacy of MAVACAMTEN was evaluated in EXPLORER-HCM (NCT-03470545) a Phase 3, double-blind, randomized, placebo-controlled, multicenter, international, parallel-group trial in 251 adults with symptomatic NYHA class II and III obstructive HCM, LVEF≥55%, and Valsalva LVOT peak gradient ≥50 mmHg at rest or with provocation.
Patients on dual therapy with beta blocker and calcium channel blocker treatment or monotherapy with disopyramide or ranolazine were excluded. Patients with a known infiltrative or storage disorder causing cardiac hypertrophy that mimicked obstructive HCM, such as Fabry disease, amyloidosis, or Noonan syndrome with left ventricular hypertrophy, were also excluded.
Patients were randomized in a 1:1 ratio to receive either a starting dose of 5 mg of MAVACAMTEN or placebo once daily for 30 weeks. Treatment assignment was stratified by baseline NYHA functional class, baseline use of beta blockers, and type of ergometer (treadmill or exercise bicycle).
All patients were initiated on MAVACAMTEN 5 mg (or matching placebo) once daily, and the dose was periodically adjusted to optimize patient response (decrease in LVOT gradient with Valsalva maneuver) and maintain LVEF≥50%. The dose was also informed by plasma concentrations of MAVACAMTEN.
The primary composite functional endpoint, assessed at 30 weeks, was defined as the proportion of patients who achieved either improvement of […] (pVO2) by ≥1.5 mL/kg/min plus improvement in NYHA class by at least 1 or improvement of pVO2 by ≥3.0 mL/kg/min plus no worsening in NYHA class.
The treatment effects of MAVACAMTEN on LVOT obstruction, functional capacity, and health status were assessed by change from baseline through Week 30 in post-exercise LVOT peak gradient, change in pVO2, proportion of patients with improvement in NYHA class, Kansas City Cardiomyopathy Questionnaire-23 (KCCQ-23) Clinical Summary Score (CSS), and Hypertrophic Cardiomyopathy Symptom Questionnaire (HCMSQ) Shortness of Breath (SoB) domain score.
Missing data were not imputed to summarize the baseline and change from baseline to Week 30 values. Difference in mean change from baseline between treatment groups was estimated using a mixed model for repeated measures.

[2] = Clinical pharmacokinetics of mavacamten; type: in vivo, human; settings: for half-life: plasma, read-out: terminal half-life (converted)
[3] = biological target: T1, CYP2C19 (Homo sapiens, UniProt P33261); assay: Metabolism through CYP enzymes
[4] = biological target: CYP2C9 (Homo sapiens, UniProt P11712); assay: Metabolism through CYP enzymes
[5] = Excretion after a single 25 mg dose of radiolabeled mavacamten; type: in vivo; settings: single 25 mg dose of radiolabeled mavacamten
Procedure: Following a single 25 mg dose of radiolabeled mavacamten, 7% of the dose was recovered in feces (1% unchanged) and 85% in urine (3% unchanged).

[6] = Pharmacokinetics in hepatic impairment; type: in vivo, human; settings: mild (Child-Pugh A) or moderate (Child-Pugh B) hepatic impairment vs normal hepatic function
[7] = tested on: CYP2C19; assay: Pharmacogenomics: CYP2C19 poor vs normal metabolizers, single 15 mg dose; type: in vivo, human; settings: for half-life: human, in vivo, 15 mg
Source text: Mean half-life is prolonged in CYP2C19 PMs compared to NMs (23 days vs. 6 to 9 days, respectively).
Polymorphic CYP2C19 is the main enzyme involved in the metabolism of MAVACAMTEN. An individual carrying two normal function alleles is a NM (e.g., *1/*1). An individual carrying two no function alleles is a PM (e.g., *2/*2, *2/*3, *3/*3).

[8] = biological target: CYP2C8 (Homo sapiens, UniProt P10632); assay: In vitro CYP inhibition; type: in vitro ADME; settings: In Vitro Studies
[9] = biological target: T1, CYP2C19; assay: In vitro CYP inhibition; type: in vitro ADME; settings: In Vitro Studies; clinically relevant concentrations
[10] = biological target: BCRP (Homo sapiens, UniProt Q9UNQ0); assay: In vitro transporter inhibition; type: in vitro ADME; settings: In Vitro Studies
[11] = biological target: BSEP (Homo sapiens, UniProt O95342); assay: In vitro transporter inhibition; type: in vitro ADME; settings: In Vitro Studies
[12] = tested on: rat; assay: Rat in vivo micronucleus assay
[13] = tested on: CYP2C19, CYP3A4; assay: Established and Potentially Significant Pharmacokinetic Drug Interactions with MAVACAMTEN (Table 1); settings: Concomitant use with a moderate to strong CYP2C19 inducer or a moderate to strong CYP3A4 inducer
[14] = Baseline to Week 30, vs Placebo
[15] = CYP2C19 PMs compared to NMs, single dose of 15 mg

T1 sequence (P33261 whole entry): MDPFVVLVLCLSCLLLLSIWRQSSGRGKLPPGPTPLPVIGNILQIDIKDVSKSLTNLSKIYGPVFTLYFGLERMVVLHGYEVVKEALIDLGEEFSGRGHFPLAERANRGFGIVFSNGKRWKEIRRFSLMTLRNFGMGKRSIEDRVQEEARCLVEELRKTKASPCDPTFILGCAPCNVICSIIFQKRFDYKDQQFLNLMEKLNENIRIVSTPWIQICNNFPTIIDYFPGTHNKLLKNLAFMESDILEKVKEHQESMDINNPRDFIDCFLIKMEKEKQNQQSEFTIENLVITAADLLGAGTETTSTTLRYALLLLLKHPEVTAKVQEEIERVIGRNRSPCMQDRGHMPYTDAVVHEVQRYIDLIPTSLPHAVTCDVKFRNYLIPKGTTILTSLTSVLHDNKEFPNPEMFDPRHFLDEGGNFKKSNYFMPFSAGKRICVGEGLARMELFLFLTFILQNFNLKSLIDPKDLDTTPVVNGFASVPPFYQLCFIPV
BCRP, sequence (Q9UNQ0 whole entry): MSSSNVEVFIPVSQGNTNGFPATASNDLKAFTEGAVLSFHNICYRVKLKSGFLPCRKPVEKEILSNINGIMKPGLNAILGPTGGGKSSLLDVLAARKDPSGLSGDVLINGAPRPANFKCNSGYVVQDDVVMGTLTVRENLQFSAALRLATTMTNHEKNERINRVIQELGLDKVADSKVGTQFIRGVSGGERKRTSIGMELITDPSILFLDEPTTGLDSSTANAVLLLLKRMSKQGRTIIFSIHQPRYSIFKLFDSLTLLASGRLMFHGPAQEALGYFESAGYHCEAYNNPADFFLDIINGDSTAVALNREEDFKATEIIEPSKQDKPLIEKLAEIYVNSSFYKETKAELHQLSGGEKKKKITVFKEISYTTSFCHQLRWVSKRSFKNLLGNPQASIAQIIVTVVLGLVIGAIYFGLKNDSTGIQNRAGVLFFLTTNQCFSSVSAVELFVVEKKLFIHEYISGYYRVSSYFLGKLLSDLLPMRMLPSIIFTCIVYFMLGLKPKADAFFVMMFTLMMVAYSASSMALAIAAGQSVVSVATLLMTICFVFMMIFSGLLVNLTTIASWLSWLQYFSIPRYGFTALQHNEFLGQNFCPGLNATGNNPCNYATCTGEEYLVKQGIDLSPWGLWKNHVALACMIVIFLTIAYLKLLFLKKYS
CYP2C9, sequence (P11712 whole entry): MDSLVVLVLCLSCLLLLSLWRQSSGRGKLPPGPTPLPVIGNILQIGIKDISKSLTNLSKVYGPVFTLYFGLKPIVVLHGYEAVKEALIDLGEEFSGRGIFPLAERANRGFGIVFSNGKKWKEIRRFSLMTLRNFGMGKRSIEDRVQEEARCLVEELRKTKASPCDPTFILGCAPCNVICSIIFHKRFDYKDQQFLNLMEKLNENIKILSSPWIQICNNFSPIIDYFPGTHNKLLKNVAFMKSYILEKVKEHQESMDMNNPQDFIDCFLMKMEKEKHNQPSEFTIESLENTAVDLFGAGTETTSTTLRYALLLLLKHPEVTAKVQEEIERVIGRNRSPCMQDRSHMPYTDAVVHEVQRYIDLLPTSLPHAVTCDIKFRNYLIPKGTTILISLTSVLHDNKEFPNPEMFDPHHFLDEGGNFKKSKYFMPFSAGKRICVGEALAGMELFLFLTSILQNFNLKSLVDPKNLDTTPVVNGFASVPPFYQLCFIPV
BSEP, sequence (O95342 whole entry): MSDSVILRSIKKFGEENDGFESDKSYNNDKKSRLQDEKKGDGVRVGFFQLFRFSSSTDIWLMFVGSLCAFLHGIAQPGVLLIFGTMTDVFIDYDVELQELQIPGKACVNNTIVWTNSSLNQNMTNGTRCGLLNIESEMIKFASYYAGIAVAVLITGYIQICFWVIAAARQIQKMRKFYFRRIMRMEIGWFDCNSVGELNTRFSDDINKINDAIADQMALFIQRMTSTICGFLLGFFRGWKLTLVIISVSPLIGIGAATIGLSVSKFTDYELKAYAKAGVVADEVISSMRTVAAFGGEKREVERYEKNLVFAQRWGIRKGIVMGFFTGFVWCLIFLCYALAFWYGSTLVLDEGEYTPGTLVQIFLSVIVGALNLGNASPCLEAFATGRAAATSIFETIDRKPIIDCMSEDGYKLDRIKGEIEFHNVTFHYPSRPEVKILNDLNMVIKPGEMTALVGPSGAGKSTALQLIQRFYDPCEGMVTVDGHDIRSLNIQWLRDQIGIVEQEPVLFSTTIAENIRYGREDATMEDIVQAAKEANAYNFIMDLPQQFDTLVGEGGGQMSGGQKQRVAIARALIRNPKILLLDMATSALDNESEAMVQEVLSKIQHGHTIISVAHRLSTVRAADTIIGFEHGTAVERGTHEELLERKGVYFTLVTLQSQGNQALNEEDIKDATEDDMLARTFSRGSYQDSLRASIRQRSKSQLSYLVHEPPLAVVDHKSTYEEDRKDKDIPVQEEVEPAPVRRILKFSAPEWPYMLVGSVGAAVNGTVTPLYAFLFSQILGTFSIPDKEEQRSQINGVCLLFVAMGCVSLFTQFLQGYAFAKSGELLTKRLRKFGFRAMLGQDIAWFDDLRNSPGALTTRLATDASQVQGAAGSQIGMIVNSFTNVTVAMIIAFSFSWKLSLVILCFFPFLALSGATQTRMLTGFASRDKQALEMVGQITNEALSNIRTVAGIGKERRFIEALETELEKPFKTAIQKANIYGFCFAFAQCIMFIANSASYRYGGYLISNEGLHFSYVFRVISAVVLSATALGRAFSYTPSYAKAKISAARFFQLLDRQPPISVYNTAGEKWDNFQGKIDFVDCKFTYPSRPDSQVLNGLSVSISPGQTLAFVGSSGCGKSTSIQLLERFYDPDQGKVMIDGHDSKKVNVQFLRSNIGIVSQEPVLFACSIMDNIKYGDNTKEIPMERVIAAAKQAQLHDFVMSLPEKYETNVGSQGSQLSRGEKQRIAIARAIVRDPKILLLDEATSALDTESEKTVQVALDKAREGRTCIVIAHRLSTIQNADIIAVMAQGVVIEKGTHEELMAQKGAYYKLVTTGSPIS
CYP2C8, sequence (P10632 whole entry): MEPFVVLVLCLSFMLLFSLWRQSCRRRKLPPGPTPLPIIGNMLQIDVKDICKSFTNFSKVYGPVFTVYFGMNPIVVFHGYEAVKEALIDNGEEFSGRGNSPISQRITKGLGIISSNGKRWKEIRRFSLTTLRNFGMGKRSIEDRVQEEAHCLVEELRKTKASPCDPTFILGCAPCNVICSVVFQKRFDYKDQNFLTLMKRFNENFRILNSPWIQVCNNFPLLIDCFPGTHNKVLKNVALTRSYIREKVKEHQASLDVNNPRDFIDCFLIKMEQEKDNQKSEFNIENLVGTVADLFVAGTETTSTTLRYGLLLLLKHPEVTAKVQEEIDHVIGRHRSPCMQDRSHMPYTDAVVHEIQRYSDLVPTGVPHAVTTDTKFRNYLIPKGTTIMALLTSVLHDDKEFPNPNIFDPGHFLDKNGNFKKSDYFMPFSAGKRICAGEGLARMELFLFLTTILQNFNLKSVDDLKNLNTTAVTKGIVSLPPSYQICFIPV

Q: For `CC(C)n1c(=O)cc(N[C@@H](C)c2ccccc2)[nH]c1=O` [mavacamten, (S)-3-Isopropyl-6-((1-phenylethyl)amino)pyrimidine-2,4(1H,3H)-dione], which “Change from baseline pVO2 ≥1.5 mL/kg/min and decreased NYHA” value ([1]; 30 Weeks, N = 123) is on record?
A: 41 (33%)

Q: And the “Change from baseline pVO2 ≥3 mL/kg/min and NYHA not increased” value ([1]; 30 Weeks, N = 123)?
A: 29 (23%)

Q: And the “Total responders (primary endpoint)” value ([1]; 30 Weeks, N = 123)?
A: 45 (37%)

Q: What about the “Change from baseline pVO2 ≥1.5 mL/kg/min and decreased NYHA, Difference (95% CI)” value ([1]; 30 Weeks, vs Placebo) of the same compound?
A: 19% (9, 30)

Q: What about the “Change from baseline pVO2 ≥3 mL/kg/min and NYHA not increased, Difference (95% CI)” value ([1]; 30 Weeks, vs Placebo) of the same compound?
A: 13% (3, 22)

Q: What about the “Total responders, Difference (95% CI)” value ([1]; 30 Weeks, vs Placebo) of the same compound?
A: 19% (9, 30)

Q: What about the “Number (%) with NYHA Class improved ≥1” value ([1]; Baseline to Week 30, N = 123) of the same compound?
A: 80 (65%)

Q: And the “Post-Exercise LVOT gradient, mean (SD) change” value ([1]; Baseline to Week 30, N = 123)?
A: −47 (40) mmHg

Q: What about the “pVO2, mean (SD) change” value ([1]; Baseline to Week 30, N = 123) of the same compound?
A: 1.4 (3.1) mL/kg/min

Q: And the “NYHA Class improved ≥1, Difference (95% CI)” value [1, 14]?
A: 34% (22%, 45%)

Q: What about the “Post-Exercise LVOT gradient, Difference (95% CI)” value [1, 14] of the same compound?
A: −35 (−43, −28) mmHg

Q: And the “pVO2, Difference (95% CI)” value [1, 14]?
A: 1.4 (0.6, 2.1) mL/kg/min

Q: What about the “Syncope leading to discontinuation, patients” value ([1]; EXPLORER-HCM) of the same compound?
A: 0.8%

Q: And the “patients in whom reductions in LVEF to <50% were asymptomatic” value ([1]; EXPLORER-HCM)?
A: 3 of the 7

Q: And the “patients who temporarily interrupted their dose due to LVEF<50%” value ([1]; EXPLORER-HCM)?
A: Three

Q: What about the “patients with reversible reductions in LVEF to <50% while on treatment, n (%)” value ([1]; EXPLORER-HCM) of the same compound?
A: 7 (6%)

Q: And the “Adverse reaction: dizziness, patients” value ([1]; EXPLORER-HCM, 2.5-15 mg daily)?
A: 27%

Q: What about the “Adverse reaction: syncope, patients” value ([1]; EXPLORER-HCM, 2.5-15 mg daily) of the same compound?
A: 6%

Q: And the “mean (SD) change from baseline in Valsalva LVOT gradient” value ([1]; Week 30)?
A: −49 (34) mmHg

Q: And the “mean (SD) change from baseline in resting LVOT gradient” value ([1]; Week 30)?
A: −39 (29) mmHg

Q: What about the “proportion of patients who met the primary endpoint” value ([1]; Week 30) of the same compound?
A: 37%

Q: What about the “secondary endpoints (post-exercise LVOT peak gradient, pVO2, NYHA class, KCCQ-23 CSS, HCMSQ SoB)” value ([1]; Week 30) of the same compound?
A: greater improvement compared to the placebo group across all secondary endpoints

Q: What about the “HCMSQ SoB, Difference, LS Mean (95% CI)” value ([1]; Week 30, vs Placebo) of the same compound?
A: −2 (−2, −1)

Q: What about the “KCCQ-23 CSS, Difference, LS Mean (95% CI)” value ([1]; Week 30, vs Placebo) of the same compound?
A: 9 (5, 13)

Q: And the “reduction in NT-proBNP greater than for placebo” value ([1]; Week 30 compared with baseline)?
A: 80%

Q: What about the “LVEF following interruption in patients with LVEF <50%” value ([1]; all 7 patients) of the same compound?
A: LVEF recovered

Q: What about the “Subgroup analysis of the primary composite functional endpoint” value ([1]; all subgroups analyzed (FIG. 17)) of the same compound?
A: consistently favored MAVACAMTEN across all subgroups analyzed

Q: And the “benefit in patients on background beta blocker therapy compared to those who were not” value ([1]; attenuated improvement in pVO2)?
A: smaller

Q: What about the “KCCQ-23 PL, Change from Baseline to Week 30, Mean (SD)” value ([1]; in vivo) of the same compound?
A: 15 (17)

Q: What about the “KCCQ-23 TSS, Change from Baseline to Week 30, Mean (SD)” value ([1]; in vivo) of the same compound?
A: 12 (15)

Q: And the “KCCQ-23 CSS, Change from Baseline to Week 30, Mean (SD)” value ([1]; n = 99)?
A: 14 (14)

Q: What about the “HCMSQ SoB, Change from Baseline to Week 30, Mean (SD)” value ([1]; n = 108) of the same compound?
A: −3 (3)

Q: And the “mean (SD) absolute change from baseline in LVEF” value ([1]; over the 30-week treatment period)?
A: −4% (8)

Q: What about the “accumulation ratio for AUC” value ([2]; CYP2C19 NMs) of the same compound?
A: about 7 fold

Q: What about the “accumulation ratio for Cmax” value ([2]; CYP2C19 NMs) of the same compound?
A: about 2 fold

Q: And the “pharmacokinetics with a high fat meal” value ([2]; Effect of Food)?
A: No clinically significant differences

Q: And the “pharmacokinetics by age (18-82 years), sex, race, ethnicity, or mild to moderate renal impairment” value ([2]; Specific Populations)?
A: No clinically significant differences

Q: What about the Tmax ([2]; human, in vivo, oral, read-out: time to maximum concentration (Tmax)) of the same compound?
A: 1 h

Q: And the bioavailability ([2]; human, in vivo, po, read-out: estimated oral bioavailability)?
A: ≥ 85%

Q: What about the half-life ([2]; human, oral, CYP2C19 normal metabolizers (NMs)) of the same compound?
A: 144 to 216 h

Q: What about the half-life ([2]; human, oral, CYP2C19 poor metabolizers (PMs)) of the same compound?
A: 552 h

Q: What about the exposure vs dose ([2]; multiple once-daily doses of 1 mg to 15 mg) of the same compound?
A: increases generally dose proportionally

Q: And the “higher exposures in patients with HCM compared to healthy subjects” value ([2]; same dose level)?
A: 170%

Q: And the “peak-to-trough plasma concentration ratio” value ([2]; steady-state, once daily dosing)?
A: approximately 1.5

Q: And the “metabolized through CYP2C19” value [3]?
A: 74%

Q: What about the “metabolized through CYP2C9” value [4] of the same compound?
A: 8%

Q: What about the “dose recovered in feces” value [5] of the same compound?
A: 7%

Q: What about the “dose recovered in feces unchanged” value [5] of the same compound?
A: 1%

Q: And the “dose recovered in urine” value [5]?
A: 85%

Q: And the “dose recovered in urine unchanged” value [5]?
A: 3%

Q: What about the “exposure (AUC) increase” value [6] of the same compound?
A: up to 220%

Q: What about the AUCinf increase [7, 15] of the same compound?
A: 241%

Q: And the Cmax increase [7, 15]?
A: 47%

Q: And the half-life ([7]; CYP2C19 NMs)?
A: 144 to 216 h

Q: And the half-life ([7]; CYP2C19 PMs)?
A: 552 h

Q: What about the “inhibition of CYP2C8” value [8] of the same compound?
A: does not inhibit

Q: And the “inhibition of CYP2C19” value [9]?
A: not an inhibitor

Q: What about the “inhibition of BCRP” value [10] of the same compound?
A: does not inhibit

Q: What about the “inhibition of BSEP” value [11] of the same compound?
A: does not inhibit

Q: And the genotoxicity [12]?
A: not genotoxic

Q: And the “Clinical Impact on mavacamten exposure” value [13]?
A: moderate to strong CYP3A4 inducer decreases mavacamten exposure,
